Key:
Test in all cases: KINOMEscan competition binding
Settings in all cases: compound 10.0 µM
[1] = target: ABL2 (human) (UniProt P42684)
[2] = target: ACVR2B (human) (UniProt Q13705)
[3] = target: ANKK1 (human) (UniProt Q8NFD2)
[4] = target: BRSK1 (human) (UniProt Q8TDC3)
[5] = target: BTK (human) (UniProt Q06187)
[6] = target: CDK14 (human) (UniProt O94921)
[7] = target: CDK17 (human) (UniProt Q00537)
[8] = target: CDK18 (human) (UniProt Q07002)
[9] = target: CSK (human) (UniProt P41240)
[10] = target: DAPK2 (human) (UniProt Q9UIK4)
[11] = target: DCLK1 (human) (UniProt O15075)
[12] = test system: EIF2AK4 KD2 (human), Q9P2K8 [S808G]
[13] = target: EPHA5 (human) (UniProt P54756)
[14] = target: EPHA8 (human) (UniProt P29322)
EPHA8 (human), sequence (P29322 whole entry, looked up): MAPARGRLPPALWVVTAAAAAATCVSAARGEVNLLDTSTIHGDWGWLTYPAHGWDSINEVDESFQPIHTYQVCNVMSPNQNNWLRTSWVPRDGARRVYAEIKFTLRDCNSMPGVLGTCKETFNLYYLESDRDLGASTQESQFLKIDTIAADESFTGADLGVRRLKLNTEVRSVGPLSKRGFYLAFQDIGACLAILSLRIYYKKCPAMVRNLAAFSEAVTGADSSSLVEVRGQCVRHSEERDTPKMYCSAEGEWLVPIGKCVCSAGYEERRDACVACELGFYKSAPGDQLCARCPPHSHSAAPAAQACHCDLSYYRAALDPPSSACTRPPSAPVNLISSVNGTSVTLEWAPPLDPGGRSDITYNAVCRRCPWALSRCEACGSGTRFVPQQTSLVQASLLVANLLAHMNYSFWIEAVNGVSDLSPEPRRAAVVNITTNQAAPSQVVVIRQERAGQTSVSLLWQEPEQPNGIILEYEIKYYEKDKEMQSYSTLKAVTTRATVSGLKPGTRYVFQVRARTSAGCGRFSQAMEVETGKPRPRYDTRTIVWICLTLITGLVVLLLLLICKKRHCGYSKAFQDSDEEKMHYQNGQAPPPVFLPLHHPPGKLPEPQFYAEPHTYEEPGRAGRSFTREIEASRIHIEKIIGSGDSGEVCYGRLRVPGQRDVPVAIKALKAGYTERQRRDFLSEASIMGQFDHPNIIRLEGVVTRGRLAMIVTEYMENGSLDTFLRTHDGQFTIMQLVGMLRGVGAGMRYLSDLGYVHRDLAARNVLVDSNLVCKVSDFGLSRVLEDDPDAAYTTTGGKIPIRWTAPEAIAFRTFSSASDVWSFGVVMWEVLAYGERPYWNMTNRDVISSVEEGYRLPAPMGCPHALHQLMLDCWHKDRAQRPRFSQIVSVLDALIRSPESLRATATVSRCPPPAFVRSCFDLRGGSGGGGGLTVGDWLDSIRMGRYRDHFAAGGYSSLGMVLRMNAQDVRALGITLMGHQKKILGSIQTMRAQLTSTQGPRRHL

[15] = target: ERN1 (human) (UniProt O75460)
[16] = target: FGR (human) (UniProt P09769)
FGR (human), sequence (P09769 whole entry, looked up): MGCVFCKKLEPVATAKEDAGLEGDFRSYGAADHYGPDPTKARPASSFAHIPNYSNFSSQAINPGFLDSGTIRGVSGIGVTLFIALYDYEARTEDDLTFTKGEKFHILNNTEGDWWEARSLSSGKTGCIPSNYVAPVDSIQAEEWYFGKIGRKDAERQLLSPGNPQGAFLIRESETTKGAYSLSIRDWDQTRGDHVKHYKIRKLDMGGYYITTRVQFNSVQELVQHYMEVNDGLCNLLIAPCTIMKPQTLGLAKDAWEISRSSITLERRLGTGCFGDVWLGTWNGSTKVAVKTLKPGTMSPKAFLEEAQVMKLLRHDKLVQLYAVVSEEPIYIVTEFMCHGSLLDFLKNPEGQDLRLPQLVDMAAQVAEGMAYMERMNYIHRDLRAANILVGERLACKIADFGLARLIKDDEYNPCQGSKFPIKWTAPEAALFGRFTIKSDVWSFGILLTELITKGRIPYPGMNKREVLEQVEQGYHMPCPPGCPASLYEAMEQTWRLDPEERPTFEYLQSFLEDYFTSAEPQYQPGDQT

[17] = target: HCK (human) (UniProt P08631)
[18] = target: HIPK2 (human) (UniProt Q9H2X6)
[19] = test system: KIT (human), P10721 [L576P]
[20] = target: LTK (human) (UniProt P29376)
[21] = target: LYN (human) (UniProt P07948)
[22] = target: MAPK6 (human) (UniProt Q16659)
MAPK6 (human), sequence (Q16659 whole entry, looked up): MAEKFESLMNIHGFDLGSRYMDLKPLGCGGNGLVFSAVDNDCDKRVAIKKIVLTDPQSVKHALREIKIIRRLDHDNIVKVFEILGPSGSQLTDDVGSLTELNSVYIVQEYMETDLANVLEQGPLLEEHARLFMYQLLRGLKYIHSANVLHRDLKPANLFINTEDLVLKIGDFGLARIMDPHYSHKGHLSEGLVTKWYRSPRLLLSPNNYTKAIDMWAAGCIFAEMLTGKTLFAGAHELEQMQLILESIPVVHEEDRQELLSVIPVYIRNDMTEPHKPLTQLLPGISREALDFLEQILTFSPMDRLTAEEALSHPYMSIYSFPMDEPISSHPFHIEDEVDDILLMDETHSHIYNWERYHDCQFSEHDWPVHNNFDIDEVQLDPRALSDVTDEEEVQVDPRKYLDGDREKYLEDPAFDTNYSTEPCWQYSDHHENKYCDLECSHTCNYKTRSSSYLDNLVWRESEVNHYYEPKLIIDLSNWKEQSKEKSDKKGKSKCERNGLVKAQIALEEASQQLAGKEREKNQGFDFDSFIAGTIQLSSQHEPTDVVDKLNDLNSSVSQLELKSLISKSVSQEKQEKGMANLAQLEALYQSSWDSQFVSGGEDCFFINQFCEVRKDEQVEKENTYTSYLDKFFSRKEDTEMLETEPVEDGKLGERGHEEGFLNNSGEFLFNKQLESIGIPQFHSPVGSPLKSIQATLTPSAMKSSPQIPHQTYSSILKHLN

[23] = target: MYLK2 (human) (UniProt Q9H1R3)
[24] = target: NUAK1 (human) (UniProt O60285)
[25] = test system: PIK3CA (human), P42336 [H1047L]
[26] = test system: PIK3CA (human), P42336 [H1047Y]
[27] = target: PIP5K1A (human) (UniProt Q99755)
[28] = target: PRKG2 (human) (UniProt Q13237)
[29] = target: PRPF4B (human) (UniProt Q13523)
[30] = test system: RET (human), P07949 [V804L]
[31] = target: RPS6KA1 KD1 (human) (UniProt Q15418)
[32] = target: RPS6KA4 KD1 (human) (UniProt O75676)
[33] = target: RPS6KA5 KD2 (human) (UniProt O75582)
[34] = target: STK32B (human) (UniProt Q9NY57)
STK32B (human), sequence (Q9NY57 whole entry, looked up): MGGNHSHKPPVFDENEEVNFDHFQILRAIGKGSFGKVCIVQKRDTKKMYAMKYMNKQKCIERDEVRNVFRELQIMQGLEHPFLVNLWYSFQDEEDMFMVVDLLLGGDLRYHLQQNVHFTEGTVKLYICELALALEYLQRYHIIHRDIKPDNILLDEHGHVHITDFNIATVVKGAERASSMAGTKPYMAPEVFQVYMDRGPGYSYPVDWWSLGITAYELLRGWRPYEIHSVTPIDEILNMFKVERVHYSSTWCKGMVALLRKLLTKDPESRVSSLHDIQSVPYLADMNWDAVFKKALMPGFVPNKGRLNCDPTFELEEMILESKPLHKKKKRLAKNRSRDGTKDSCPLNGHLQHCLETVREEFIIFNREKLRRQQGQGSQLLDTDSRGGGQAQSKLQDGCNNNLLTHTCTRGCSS

[35] = target: STK33 (human) (UniProt Q9BYT3)
STK33 (human), sequence (Q9BYT3 whole entry, looked up): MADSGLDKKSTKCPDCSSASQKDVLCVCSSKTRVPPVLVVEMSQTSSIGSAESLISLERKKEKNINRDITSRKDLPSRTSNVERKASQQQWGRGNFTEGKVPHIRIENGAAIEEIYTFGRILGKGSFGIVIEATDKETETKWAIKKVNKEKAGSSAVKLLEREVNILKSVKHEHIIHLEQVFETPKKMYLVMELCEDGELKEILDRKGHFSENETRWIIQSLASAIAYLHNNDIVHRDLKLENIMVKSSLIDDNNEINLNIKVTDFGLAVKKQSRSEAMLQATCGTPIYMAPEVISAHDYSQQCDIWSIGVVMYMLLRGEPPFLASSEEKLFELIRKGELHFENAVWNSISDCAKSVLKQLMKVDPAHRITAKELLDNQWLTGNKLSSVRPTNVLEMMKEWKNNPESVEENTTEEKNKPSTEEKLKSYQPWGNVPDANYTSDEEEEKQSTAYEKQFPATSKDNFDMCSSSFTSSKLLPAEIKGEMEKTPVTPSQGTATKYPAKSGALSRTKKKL

[36] = target: SYK (human) (UniProt P43405)
[37] = target: TBK1 (human) (UniProt Q9UHD2)
[38] = target: TGFBR1 (human) (UniProt P36897)
[39] = target: TIE1 (human) (UniProt P35590)
[40] = target: TSSK1B (human) (UniProt Q9BXA7)
[41] = target: YES1 (human) (UniProt P07947)

BTK (human), sequence (Q06187 whole entry, looked up): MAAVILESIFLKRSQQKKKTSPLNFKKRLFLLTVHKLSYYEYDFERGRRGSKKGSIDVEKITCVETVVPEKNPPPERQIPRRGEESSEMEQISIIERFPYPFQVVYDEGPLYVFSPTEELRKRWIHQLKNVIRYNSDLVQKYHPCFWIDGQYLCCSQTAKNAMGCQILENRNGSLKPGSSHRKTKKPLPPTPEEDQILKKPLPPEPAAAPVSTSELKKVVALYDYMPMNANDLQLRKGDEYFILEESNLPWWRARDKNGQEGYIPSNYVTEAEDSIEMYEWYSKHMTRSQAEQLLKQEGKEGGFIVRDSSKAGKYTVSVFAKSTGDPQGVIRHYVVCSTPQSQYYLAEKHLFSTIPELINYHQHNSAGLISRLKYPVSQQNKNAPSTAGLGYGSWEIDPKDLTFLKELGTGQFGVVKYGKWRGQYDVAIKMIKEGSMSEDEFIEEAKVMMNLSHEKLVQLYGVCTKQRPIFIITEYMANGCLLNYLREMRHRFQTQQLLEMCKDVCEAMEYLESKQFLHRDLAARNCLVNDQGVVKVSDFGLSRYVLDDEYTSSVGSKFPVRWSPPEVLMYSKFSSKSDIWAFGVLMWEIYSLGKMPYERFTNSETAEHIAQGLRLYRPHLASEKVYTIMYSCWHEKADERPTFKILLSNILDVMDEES
CDK14 (human), sequence (O94921 whole entry, looked up): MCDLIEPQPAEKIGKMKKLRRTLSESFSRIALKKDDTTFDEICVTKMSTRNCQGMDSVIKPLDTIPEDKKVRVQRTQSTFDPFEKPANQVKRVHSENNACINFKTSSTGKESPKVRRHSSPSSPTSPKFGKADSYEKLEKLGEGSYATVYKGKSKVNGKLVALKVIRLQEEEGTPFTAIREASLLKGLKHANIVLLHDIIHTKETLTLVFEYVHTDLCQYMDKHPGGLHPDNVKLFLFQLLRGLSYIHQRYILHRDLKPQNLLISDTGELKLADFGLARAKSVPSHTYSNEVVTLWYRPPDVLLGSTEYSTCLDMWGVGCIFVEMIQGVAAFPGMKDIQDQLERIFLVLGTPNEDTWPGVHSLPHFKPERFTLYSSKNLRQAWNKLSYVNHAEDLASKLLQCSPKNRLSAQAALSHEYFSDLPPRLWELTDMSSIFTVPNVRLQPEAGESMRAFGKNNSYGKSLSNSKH
CDK18 (human), sequence (Q07002 whole entry, looked up): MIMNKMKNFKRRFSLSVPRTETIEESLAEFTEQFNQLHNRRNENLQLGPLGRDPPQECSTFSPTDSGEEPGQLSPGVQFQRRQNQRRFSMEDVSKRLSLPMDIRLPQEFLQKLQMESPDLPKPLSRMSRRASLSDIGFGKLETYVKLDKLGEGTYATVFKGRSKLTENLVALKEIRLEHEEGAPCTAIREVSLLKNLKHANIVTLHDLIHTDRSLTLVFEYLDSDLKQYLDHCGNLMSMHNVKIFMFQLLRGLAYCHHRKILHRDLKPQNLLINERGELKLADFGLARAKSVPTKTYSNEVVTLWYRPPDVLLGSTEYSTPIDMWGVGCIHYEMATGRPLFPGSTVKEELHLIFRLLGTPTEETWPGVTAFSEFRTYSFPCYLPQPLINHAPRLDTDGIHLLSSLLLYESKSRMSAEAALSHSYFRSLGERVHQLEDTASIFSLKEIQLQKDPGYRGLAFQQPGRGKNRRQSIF

Structure (SMILES): O=C1Nc2cc(Br)ccc2/C1=C1/Nc2ccccc2/C1=N\O
- kinase still bound, per cent of control [1]: 1.2%
- kinase still bound, per cent of control [2]: 20%
- kinase still bound, per cent of control [3]: 4.8%
- kinase still bound, per cent of control [4]: 1.8%
- kinase still bound, per cent of control [5]: 38%
- kinase still bound, per cent of control [6]: 18%
- kinase still bound, per cent of control [7]: 12%
- kinase still bound, per cent of control [8]: 12%
- kinase still bound, per cent of control [9]: 56%
- kinase still bound, per cent of control [10]: 2.6%
- kinase still bound, per cent of control [11]: 99%
- kinase still bound, per cent of control [12]: 14%
- kinase still bound, per cent of control [13]: 30%
- kinase still bound, per cent of control [14]: 40%
- kinase still bound, per cent of control [15]: 51%
- kinase still bound, per cent of control [16]: 1.4%
- kinase still bound, per cent of control [17]: 1.2%
- kinase still bound, per cent of control [18]: 7.4%
- kinase still bound, per cent of control [19]: 0%
- kinase still bound, per cent of control [20]: 100%
- kinase still bound, per cent of control [21]: 6.2%
- kinase still bound, per cent of control [22]: 100%
- kinase still bound, per cent of control [23]: 3%
- kinase still bound, per cent of control [24]: 12%
- kinase still bound, per cent of control [25]: 100%
- kinase still bound, per cent of control [26]: 100%
- kinase still bound, per cent of control [27]: 0%
- kinase still bound, per cent of control [28]: 24%
- kinase still bound, per cent of control [29]: 13%
- kinase still bound, per cent of control [30]: 0%
- kinase still bound, per cent of control [31]: 3.1%
- kinase still bound, per cent of control [32]: 3.2%
- kinase still bound, per cent of control [33]: 75%
- kinase still bound, per cent of control [34]: 100%
- kinase still bound, per cent of control [35]: 11%
- kinase still bound, per cent of control [36]: 4.6%
- kinase still bound, per cent of control [37]: 32%
- kinase still bound, per cent of control [38]: 83%
- kinase still bound, per cent of control [39]: 55%
- kinase still bound, per cent of control [40]: 100%
- kinase still bound, per cent of control [41]: 6.4%
